Measured values as given in PubChem BioAssay AID720622 (The Scripps Research Institute Molecular Screening Center, 2013).

test: whole-trypanosome antiproliferative activity – absorbance, counter-screen for T. brucei MetRS inhibitor project, late-stage follow-up (AID 720622); settings: T. brucei bloodstream form 427 growth, AlamarBlue fluorescence, 48 h; run 1

SMILES	IC50 [µM]
O=C(NCc1nc2ccccc2[nH]1)C1=C[C@@H](C2CC2)C[C@@H](OCc2ccc(CO)cc2)O1	> 10
O=C(NCc1nc2ccccc2[nH]1)C1=C[C@@H](c2ccc(Br)cc2)C[C@@H](OCc2ccc(CO)cc2)O1	4.38
COc1ccc(CNC(=O)CSc2nnc3c(n2)[nH]c2ccc(F)cc23)cc1	> 10
O=C(CC(=O)Nc1cccc(Cl)c1)NN=Cc1ccccc1	> 10
O=C(NCCc1nc2ccccc2[nH]1)c1ccc(Cl)c([N+](=O)[O-])c1	4.97
O=C(NCc1nc2ccccc2[nH]1)C1=C[C@H](c2ccc3c(c2)OCO3)C[C@H](OCCCCO)O1	> 10
O=C(CC=NOCc1ccc([N+](=O)[O-])cc1)Nc1ccc(Cl)cc1	> 10
CC(CC(=O)Nc1cccc(Br)c1)=NNC(=O)c1ccc(O)cc1O	> 10
COc1ccccc1-n1c(SCC(=O)Nc2ccc(Cl)cc2)nc(O)c(Cc2ccccc2)c1=O	> 10
O=C(NNC(=O)c1ccc(-n2cncn2)c([N+](=O)[O-])c1)c1ccc(Cl)cc1	> 10
O=C(CN1CCSC1=NCc1ccccc1)c1ccc(Cl)c(Cl)c1	> 10
CCOC(=O)N1CCC(Nc2c(Nc3ccc(F)cc3)c(=O)c2=O)CC1	8.72
O=C(NNC(=O)c1cc(-c2ccc(Cl)c(Cl)c2)nc2ccccc12)Nc1ccccc1	5.24
O=C1CC(N(CCc2ccccc2)C(=S)Nc2ccccc2)C(=O)N1c1ccc(Br)cc1 (configuration not stated)	1.95
O=C(NCc1nc2ccccc2[nH]1)C1=C[C@H](c2ccccc2)C[C@H](OCc2ccc(CO)cc2)O1	> 10
Clc1ccc(-c2nnc(SCc3nc4ccccc4[nH]3)o2)c(Cl)c1	> 10
O=C(NCc1nc2ccccc2[nH]1)C1=C[C@@H](c2csc3ccccc23)C[C@@H](OCCCCO)O1	> 10
O=C(CCC(=O)Nc1cccc([N+](=O)[O-])c1)NN=Cc1cccs1	> 10
COc1ccc2[nH]c3nc(SCC(=O)Nc4ccc5c(c4)OCO5)nnc3c2c1	> 10
O=C(NCc1nc2ccccc2[nH]1)C1=C[C@H](c2csc3ccccc23)C[C@H](OCCCCO)O1	3.96
O=C(N/C(=C\c1cccnc1)c1nc2ccccc2[nH]1)c1cccc(Br)c1	> 10
CN(Cc1cc(Cl)cc(Cl)c1)[C@H]1C[C@H]2c3[nH]c4ccccc4c3CCN2C(=O)[C@H]1CO	1.97
O=C(NCc1nc2ccccc2[nH]1)C1=C[C@H](c2ccc(Br)cc2)C[C@H](OCCCCO)O1	> 10
Cc1[nH]c2ccc(Br)cc2c(=O)c1CN1CCCCCC1	> 10
CC(=O)c1ccc(N2CCN(C(=O)CCCn3c(=O)[nH]c4ccc(Br)cc4c3=O)CC2)cc1	> 10
Cc1ccc(NC(=O)CN(C)C(=O)CCSc2ccc(F)cc2)cc1	> 10
C[C@H](O)[C@@H]1C(=O)N2CCc3c([nH]c4ccccc34)[C@@H]2C[C@@H]1N(C)Cc1ccc2c(c1)OCO2	> 10

SMILES	IC50 [µM]
CC(=O)c1c[nH]c(C(=O)NCc2cccc(C(F)(F)F)c2)c1	> 10
COc1cccc(NC(=O)CSc2nnc3c(n2)[nH]c2ccc(C)cc23)c1	> 10
O=C1[C@@H]2Cc3c([nH]c4ccccc34)C(c3cccc([N+](=O)[O-])c3)N2C(=O)CN1CCCO (some centres not stated)	> 10
O=C(NCc1nc2ccccc2[nH]1)C1=C[C@H](c2ccc(Br)cc2)C[C@H](OCc2ccc(CO)cc2)O1	9.73
O=C(NCc1nc2ccccc2[nH]1)C1=C[C@@H](c2ccc(Br)cc2)C[C@@H](OCCCCO)O1	6.6
CCCCCCCCCC1NC(C(=O)O)Cc2c1[nH]c1ccccc21 (configuration not stated)	> 10
O=C(NCc1nc2ccccc2[nH]1)C1=C[C@@H](c2ccccc2)C[C@@H](OCc2ccc(CO)cc2)O1	> 10
O=C(C[C@H]1C(=O)N(Cc2ccccc2)C[C@@H]1c1ccc(Br)cc1)Nc1ccc(Br)cc1	4.03
O=C(CC=NOCc1ccc([N+](=O)[O-])cc1)Nc1ccc(Br)cc1	> 10
Clc1ccc(OCCSCc2nc3ccccc3[nH]2)cc1	> 10
CCO[C@H]1OC(C(=O)NCc2nc3ccccc3[nH]2)=C[C@@H](c2ccc(Br)cc2)[C@@H]1CCCO	> 10
Brc1cnc2nc(SCc3nc4ccccc4[nH]3)[nH]c2c1	> 10
O=C(NCc1nc2ccccc2[nH]1)C1=C[C@H](C2CC2)C[C@H](OCc2ccc(CO)cc2)O1	> 10
Oc1c(Cl)cc(Cl)cc1CNc1nc2ccccc2[nH]1	> 10
CCO[C@@H]1OC(C(=O)NCc2nc3ccccc3[nH]2)=C[C@H](c2ccc(Br)cc2)[C@H]1CCCO	> 10
CC(C)OCCCN1CC(=O)N2C(c3cccc([N+](=O)[O-])c3)c3[nH]c4ccccc4c3C[C@H]2C1=O (some centres not stated)	> 10
CC(C)(C)[C@H]1C=C(C(=O)NCc2nc3ccccc3[nH]2)O[C@@H](OCc2ccc(CO)cc2)C1	> 10
CN1CC(=O)N2C(c3cccc([N+](=O)[O-])c3)c3[nH]c4ccccc4c3C[C@H]2C1=O (some centres not stated)	> 10
CN(CC(=O)Nc1ccc(Cl)cc1)C(=O)c1ccc(-n2cncn2)c([N+](=O)[O-])c1	> 10
O=C(Nc1ccc(F)c(Cl)c1)C1CC(=O)n2c(nc3ccccc32)N1 (configuration not stated)	> 10
O=C(Cn1cnc2ccccc21)Nc1cccc([N+](=O)[O-])c1	> 10
O=C1CC(SCc2nc3ccccc3[nH]2)C(=O)N1c1cccc(Cl)c1 (configuration not stated)	> 10
CC(C)(C)[C@@H]1C=C(C(=O)NCc2nc3ccccc3[nH]2)O[C@H](OCc2ccc(CO)cc2)C1	> 10
COc1ccc(OCC(O)CNC(=O)Nc2ccc(Cl)cc2)cc1 (configuration not stated)	> 10
O=C(Cn1cc(C(=O)C(=O)N2CCOCC2)c2ccccc21)Nc1cccc(C(F)(F)F)c1	3.53
O=C(NCc1nc2ccccc2[nH]1)C1=C[C@@H](c2ccc3c(c2)OCO3)C[C@@H](OCCCCO)O1	> 10
COc1ccccc1NS(=O)(=O)c1cccc(NC(=O)Nc2ccccc2)c1	6.06

same assay, conditions: T. brucei bloodstream form 427 growth, AlamarBlue fluorescence, 48 h; run 2

SMILES	IC50 [µM]
O=C1CC(N(CCc2ccccc2)C(=S)Nc2ccccc2)C(=O)N1c1ccc(Br)cc1 (configuration not stated)	2.74
CN(Cc1cc(Cl)cc(Cl)c1)[C@H]1C[C@H]2c3[nH]c4ccccc4c3CCN2C(=O)[C@H]1CO	2.62
O=C(Cn1cc(C(=O)C(=O)N2CCOCC2)c2ccccc21)Nc1cccc(C(F)(F)F)c1	1.8
